Tests used:
RSV-Luc [1] = assay: Determination of RSV titre from lung tissues (RT-qPCR); format: in vivo, BALB/c mice; details: i.p. 10, 30, 90 mg/kg, day 5 post-infection
Description: Following the experiment of the in vivo mouse imaging mentioned above, the mice were sacrificed. The lung tissues were collected, weighed, quickly frozen under liquid nitrogen and ground with a tissue homogeniser. Then the total RNA was extracted by Trizol from 100 µL homogenates. The viral RNA sample (1 µL) was mixed with the SYBR Green supermix (10 µL), plasmid pMD-18T-N (1 µL, copy number from 1 × 10^7 copies/μL to 1 × 10^5 copies/μL), the upstream and downstream primers, respectively (10 µM, 1 µL) and water (1 µL). Reactions were performed in SLAN-96P Real-Time PCR System (Shanghai Hongshi Medical Technology) as follows: 42 °C for 60 min (for reverse transcription), 95 °C for 1.5 min, 95 °C for 15 s and 60 °C for 1 min, for 40 cycles. The reaction data were analysed by determining the threshold cycle (Ct).
Female BALB/c mice of 6–8 weeks were randomly divided into different groups with 6 mice in each group. All animal experiments were performed in compliance with protocols approved by the Institutional Animal Care and Use Committees of Tsinghua University (No. 17-DZJ1). At day 0, three different doses of 4–49 C and 1-HB-63 (10 mg/kg, 30 mg/kg, 90 mg/kg) were administered to mice by intraperitoneal (i.p.) injection, respectively, with DMSO and ribavirin of 90 mg/kg separately used as negative and positive control. […]

[2] = test system: RSV minigenome (pBR322B-RSV-Gluc) in BHK-T7 cells; assay: RSV minigenome assay (Gluc expression); format: cell-based, Human respiratory syncytial virus; details: BHK-T7, 24 h, vs DMSO
Description: BHK-T7 cells were seeded into 24 well plates at a density of 2 × 10^4 cells/well and incubated for 24 h. Then the RSV minigenome plasmid encoding […] (pBR322B-RSV-Gluc) was mixed with the helper plasmids (pCITE-N, pCITE-P, pCITE-L and pCITE-M2-1) in an Eppendorf tube containing 250 μL Opti-MEM. Meanwhile, the transfection reagent of Lipofectamine 2000 (Invitrogen, CA, USA) was diluted in another tube containing 250 μL Opti-MEM and incubated 5 min at room temperature. Then, the plasmids were mixed with the transfection reagent and incubated at room temperature for 30 min. After that, the BHK-T7 culture media were replaced with the DNA-lipo-optiMEM mixture and incubated for 4 ∼ 6 h (37 °C, 5% CO2). Then the DNA-lipo-optiMEM mixture was replaced with media containing the compounds (4–49 C at 1 mM and 1-HB-63 at 200 μM) and further incubated for 24 h (37 °C, 5% CO2). Finally, after the supernatant of the BHK-T7 cells was transferred into 96 well plate, the Gluc activity was determined by using LUMI star (BMG ABTECH, Ortenberg, Germany) following the manufacturer’s instructions after adding the chromogenic substrate of Gaussia Luciferase Flex Assay Kit (NEB, Ipswich, USA). The results were recorded by photography and/or evaluated with OPTIMA software (BMG LABTECH). The resultant signal strength was quantified as relative light unit (RLU).
Figure 2. Investigation on the underlying mechanism 4–49 C and 1-HB-63 inhibiting wtRSV replication. (A) Time-of-addition analyses of 4-49C and 1-HB-63 replication. The HEp-2 cells were infected with wtRSV at a multiplication of infection (MOI) of 5 for 2 h (37 °C, 5% CO2). The cells were washed with PBS and the media containing drug (4-49C, 1-HB-63, RSV-604, GS-5806 and Ribavirin at 1 mM, 200 μM, 10 μM, 1 mM and 100 μM, respectively.) were added at −1, 0, 2, 4, 6, 8, 10, 12 and 14 h separately and incubated till 24 h post infection. Then, the cells were harvested and lysed for RNA extraction and RT-qPCR assay. The results were a representative of three independent experiments, and shown as means ± standard and expressed as % negative control, although in many cases the bars for the standard deviation were obscured by the symbols given the small margin of values. (B) RSV adsorption analyses. After HEp-2 cells seeded into 24 well plates for 24 h, the cold media containing RSV (5 MOI) and compounds of 4–49C, 1-HB-63 and P13 at 1 mM, 200 μM and 100 μM, respectively, was added and incubated for 1 h at 4 °C. Then, the total RNA was isolated and RT-qPCR was performed. (C) RSV minigenome assay. After 24 h, we cotransfected RSV minigenome plasmid of pBR322B-RSV-Gluc with four auxiliary plasmids into BHK/T7 cells and detected the expression of Gluc in the supernatant. […]

RSV-Luc [3] = assay: In vivo mouse imaging, intraperitoneal injection; design: species or system BALB/c mice; details: i.p. 10, 30, 90 mg/kg once a day, days 1-5; except 4–49 C 10 and 90 mg/kg groups on the second day
Description: Female BALB/c mice of 6-8 weeks were purchased from Charles River Laboratories, Beijing, China and randomly divided into different groups with six mice in each group. All animal experiments were performed in compliance with protocols approved by the Institutional Animal Care and Use Committees of Tsinghua University (No. 17-DZJ1). The compounds (DMSO and ribavirin of 90 mg/kg was used as negative and positive control, respectively) with three different dose groups of 10, 30 and 90 mg/kg were administered to mice by intraperitoneal (i.p.) injection or oral route (anaesthesia with 2% halothane) at zero day and 1 h prior to the mice infected with 50 μL RSV-Luc (1 × 10^6 PFU), and then once a day for 5 consecutive days post RSV-Luc infection. For the in vivo mouse imaging, 50 μL PBS containing D-Luciferin Potassium Salt (75 mg/kg) was administered to BALB/c mice via nasal drip at days 1, 2, 3, 4 and 5 since RSV-Luc infection, and 5 min later, the whole-body images of BALB/c mice were acquired using an IVIS Lumina II in vivo imaging system (PE, Waltham, MA, USA). And the signal intensity was quantified as the total flux (photons/seconds) using Living Image software (PE).
Female BALB/c mice of 6–8 weeks were randomly divided into different groups with 6 mice in each group. […]

| Structure (SMILES) | virus titres in lung tissues compared with DMSO (RSV-Luc [1]) | inhibition of expression of Gluc gene ([2]; 4–49 C at 1 mM) | fluorescence signals (RSV-Luc replication in lungs) compared with DMSO-treated group (RSV-Luc [3]) | inhibition of expression of Gluc gene ([2]; 1-HB-63 at 200 μM) |
| --- | --- | --- | --- | --- |
| CCOc1ccccc1NC(=O)CSc1c[nH]c2ccc(OC)cc12 [4–49 C] | no significant differences | could not be inhibited | did not display significant differences |  |
| O=C(C[S+]([O-])c1c[nH]c2ccccc12)Nc1ccccc1Br (stereo not drawn) [1-HB-63] | no significant differences |  | did not display significant differences | sharply contrast |

Source: PMC9518288, “The mechanism and pharmacodynamics of 2-((1H-indol-3-yl)thio/sulfinyl)-N-pheny acetamide derivative as a novel inhibitor against human respiratory syncytial virus” (Journal of Enzyme Inhibition and Medicinal Chemistry, 2022)
